Series [1] in a line: Metabolic stability in pooled liver microsomes. The class given is in vitro ADME. To be noted: human liver microsomes, 37° C., 1 mg/mL microsomal protein, test compound 1 μM, NADPH; for half-life at 1 μM: pooled liver microsomes, pH 7.6, read-out: Half-life - t½. The method, then: The metabolic stability of the compounds according to the invention has been investigated as follows:
The metabolic degradation of the test compound was assayed at 37° C. with pooled liver microsomes from various species. The final incubation volume of 100 μl per time point contains TRIS buffer pH 7.6 at room temperature (0.1 M), magnesium chloride (5 mM), microsomal protein (1 mg/mL for human and dog, 0.5 mg/mL for other species) and the test compound at a final concentration of 1 μM. Following a short preincubation period at 37° C., the reactions were initiated by addition of betanicotinamide adenine dinucleotide phosphate, reduced form (NADPH, 1 mM), and terminated by transferring an aliquot into solvent after different time points. […] The half-life was determined by the slope of the semi-logarithmic plot of the concentration-time profile.
On the technique in general: Microsomes from liver hold many membrane-bound enzymes, among them those of drug oxidation.

In series [2] the target is PDE2A (Homo sapiens, UniProt O00408). Put plainly: PDE 2A assay with fluorescent substrate (IMAP, fluorescence polarization). The class given is biochemical. Conditions: read-out: PDE2 IC50.
Chain of PDE2A (O00408 whole entry, species assumed): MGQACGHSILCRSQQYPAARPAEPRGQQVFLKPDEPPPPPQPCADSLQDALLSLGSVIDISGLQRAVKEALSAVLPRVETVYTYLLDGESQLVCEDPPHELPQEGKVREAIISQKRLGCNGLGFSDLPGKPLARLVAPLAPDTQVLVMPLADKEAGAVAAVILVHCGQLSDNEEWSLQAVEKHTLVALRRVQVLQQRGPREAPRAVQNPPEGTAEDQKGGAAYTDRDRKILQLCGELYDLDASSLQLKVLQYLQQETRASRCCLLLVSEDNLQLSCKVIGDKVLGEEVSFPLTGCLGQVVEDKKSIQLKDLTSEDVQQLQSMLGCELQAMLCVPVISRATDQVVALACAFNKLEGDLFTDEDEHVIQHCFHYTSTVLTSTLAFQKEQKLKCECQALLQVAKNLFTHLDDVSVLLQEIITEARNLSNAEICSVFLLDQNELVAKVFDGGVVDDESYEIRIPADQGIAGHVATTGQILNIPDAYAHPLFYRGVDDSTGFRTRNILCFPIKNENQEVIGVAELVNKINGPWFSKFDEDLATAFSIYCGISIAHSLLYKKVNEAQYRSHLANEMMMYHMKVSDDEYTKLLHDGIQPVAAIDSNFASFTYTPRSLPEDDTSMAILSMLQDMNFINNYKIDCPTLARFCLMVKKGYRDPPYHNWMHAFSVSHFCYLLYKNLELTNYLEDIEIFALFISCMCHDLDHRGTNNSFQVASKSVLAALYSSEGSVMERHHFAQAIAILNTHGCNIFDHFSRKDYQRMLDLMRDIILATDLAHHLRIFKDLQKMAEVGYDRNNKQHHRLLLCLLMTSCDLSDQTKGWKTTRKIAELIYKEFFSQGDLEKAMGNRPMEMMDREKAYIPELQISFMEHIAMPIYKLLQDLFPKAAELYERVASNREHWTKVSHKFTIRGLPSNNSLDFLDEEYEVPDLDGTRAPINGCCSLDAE
Text: (§1) c) Phosphodiesterase (PDE) 2A and 10 Assay with Fluorescent Substrate
(§2) The PDE reaction cleaves cAMP to AMP. The IMAP system (Molecular Device) using fluorescence polarization (FP) as detection principle was used to measure enzyme activity. A fluorescent labeled cAMP was used as substrate for the reaction, generating a labeled AMP. The fluorescent AMP binds specifically to the large M(III)-based nano-particles which reduces the rotational speed of the substrate and thus increases its polarization.
(§3) The inhibition of PDE 2A or 10 enzyme activity was assessed using IMAP-Phosphodiesterase-cAMP fluorescence labeled substrate (Molecular Devices, Order No. R7506), IMAP TR-FRET screening express (Molecular Devices, Order No. R8160, the TR-FRET component will not be used) and PDE 2A or PDE10 protein expressed upon baculovirus infection in SF9 cells. The cells were incubated after infection for ˜3 days and protein production was confirmed by Western Blot. The cells were collected by centrifugation and the pellet frozen in liquid nitrogen before it was resuspended in PBS containing 1% Triton X-100 and protease inhibitors.
(§4) All reactions were performed in 384 well plates, Perkin Elmer black optiplates and IMAP reaction buffer with 0.1% Tween20 (kit component)
(§5) Compounds were serial diluted in DMSO. With an intermediate dilution step with reaction buffer DMSO concentration was reduced to achieve 1% DMSO in the assay reaction. Setup of the assay started with 10 μl enzyme (˜10 ng/well, depending on prep. batch), 5 μl compound, reaction was started by addition of 5 μl labeled cAMP (30 nM, final concentration), immediately mixed for 15 seconds on a Eppendorf mixmate (2000 rpm) followed by an incubation at room temperature for 90 minutes in the dark. Reaction is stopped by adding of 60 μl binding buffer for FP/cAMP (kit component).
(§6) Each assay plate contained wells with vehicle controls (1% DMSO) for the measurement of non-inhibited reaction (=100% control) and wells without enzyme as 0% controls.
Series [3] deals with PDE10 (Homo sapiens, UniProt Q9Y233). Kind of series: PDE10 assay with fluorescent substrate (IMAP, fluorescence polarization). The class given is biochemical. On the technique in general: In fluorescence polarisation assays a small probe gives low polarisation when free and higher when bound to something large.
Chain of PDE10 (Q9Y233 whole entry, species assumed): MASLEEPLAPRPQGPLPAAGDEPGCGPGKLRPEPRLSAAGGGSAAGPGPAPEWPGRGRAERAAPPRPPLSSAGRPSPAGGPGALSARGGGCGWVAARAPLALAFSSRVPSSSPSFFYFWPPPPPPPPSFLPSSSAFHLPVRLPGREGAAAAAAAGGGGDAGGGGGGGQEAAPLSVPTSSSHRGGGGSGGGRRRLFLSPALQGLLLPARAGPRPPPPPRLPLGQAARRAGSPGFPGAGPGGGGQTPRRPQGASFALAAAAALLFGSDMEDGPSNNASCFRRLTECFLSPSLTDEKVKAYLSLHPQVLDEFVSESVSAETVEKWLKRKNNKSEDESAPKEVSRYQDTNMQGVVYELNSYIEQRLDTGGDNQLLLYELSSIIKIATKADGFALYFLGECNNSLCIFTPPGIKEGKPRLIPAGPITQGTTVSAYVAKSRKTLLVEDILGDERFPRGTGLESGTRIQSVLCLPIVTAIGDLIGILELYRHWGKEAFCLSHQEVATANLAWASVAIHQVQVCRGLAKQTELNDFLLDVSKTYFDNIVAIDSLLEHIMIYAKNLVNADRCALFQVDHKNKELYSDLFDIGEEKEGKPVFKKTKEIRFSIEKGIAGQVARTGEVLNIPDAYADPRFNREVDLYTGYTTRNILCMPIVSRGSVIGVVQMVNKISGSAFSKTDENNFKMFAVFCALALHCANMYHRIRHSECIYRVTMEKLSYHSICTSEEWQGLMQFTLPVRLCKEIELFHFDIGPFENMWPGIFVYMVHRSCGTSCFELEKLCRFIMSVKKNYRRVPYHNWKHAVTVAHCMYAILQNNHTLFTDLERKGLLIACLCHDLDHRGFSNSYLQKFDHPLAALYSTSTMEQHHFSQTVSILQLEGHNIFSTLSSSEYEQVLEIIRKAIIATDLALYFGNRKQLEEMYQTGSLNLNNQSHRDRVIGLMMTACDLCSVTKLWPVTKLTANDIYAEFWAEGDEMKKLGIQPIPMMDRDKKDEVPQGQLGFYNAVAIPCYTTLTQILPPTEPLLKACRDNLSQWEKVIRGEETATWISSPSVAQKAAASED
Text: as §1, §2, §3, §4, §5, §6
For series [4], the target named is hERG channel (Homo sapiens, UniProt Q12809). Kind of series: hERG channel assay (whole-cell patch clamp, HEK293 cells transfected with hERG cDNA). The class given is cell-based. Conditions: 35° C. The source says:
hERG (Human Ether-à-Go-Go-Related Gene)-Channel Assay
hERG channel inhibition of compounds of the present invention has been investigated as follows:
HEK (human embryonic kidney) 293 cells were stably transfected with hERG cDNA. Cells were superfused with a bath solution containing (mM): NaCl (137), KCl (4.0), MgCl2 (1.0), CaCl2 (1.8), Glucose (10), HEPES (10), pH 7.4 with NaOH. Patch pipettes were made from borosilicate glass tubing using a horizontal puller and filled with pipette solution containing (mM): K-aspartate (130), MgCl2 (5.0), EGTA (5.0), K2ATP (4.0), HEPES (10.0), pH 7.2 with KOH. Resistance of the microelectrodes was in the range between 2 and 5 MΩ.
Stimulation and Recording:
Membrane currents were recorded using an EPC-10 patch clamp amplifier and PatchMaster software. hERG-mediated membrane currents were recorded at 35° C., using the whole-cell configuration of the patch-clamp technique. Transfected HEK293 cells were clamped at a holding potential of −60 mV and hERG-mediated inactivating tail currents were elicited using a pulse pattern with fixed amplitudes (activation/inactivation: 40 mV for 2000 ms; recovery: […]; ramp to 40 mV in 2 ms; inactivating tail current: 40 mV for 50 ms) repeated at 15 s intervals. During each inter-pulse interval 4 pulses scaled down by a factor of 0.2 were recorded for a P/n leak subtraction procedure. […] compensation was employed up to a level that safely allowed recording devoid of ringing.
Compound Preparation and Application:
The different concentrations of the test compound were applied sequentially on each of the different cells investigated. A steady state level of baseline current was measured for at least 6 sweeps prior to the application of the first test compound concentration.
The test compound was dissolved in DMSO to yield a master stock solution which was diluted further in DMSO to stock solutions needed for the lower concentrations. Final dilutions in extracellular buffer were prepared freshly from these stocks by a 1:1000 dilution step each before starting the experiments.
Data analysis and IC50 determination:
Peak current amplitudes were measured 3 ms after the ramp to +40 mV. For baseline and each concentration the peak currents of the three last sweeps before application of the next concentration were averaged. Residual currents ( 1/10) were calculated for each cell as the fraction of actual average peak current and average baseline peak current.
The logistic concentration-response curve of the following form was fitted to the residual current data using a genetic algorithm:
C: actual concentration of compound (in μM) IC50: half-inhibitory concentration (in μM) p: Hill slope
On the technique in general: hERG is a cardiac potassium channel; its block is linked to QT prolongation.

The nature of series [5]: Animal experiments and sample analysis: plasma, brain and CSF concentration. Format: in vivo. To be noted: rat; for concentration at 0.5 h / Kp at 0.5 h: 0.5 h between administration and CSF sampling; for concentration at 0.5 h / concentration at 2 h: doses of 10.0 or 5 μmol/kg; for concentration at 2 h / Kp at 2 h: 2 h between administration and CSF sampling.
Experimental: Test compounds were administered to animals (rat) different routes at doses of 10.0 or 5 μmol/kg, (both oral and intravenous). After compound administration, the animals were sacrificed in a CO2 chamber and CSF samples were carefully collected by puncture of the cisterna magna. Immediately after CSF sampling, blood was taken by heart puncture and brains were dissected out. Blood was collected in EDTA-coated microvettes and plasma was prepared by centrifugation. Concentration of the test compounds in plasma, CSF or brain homogenate was determined using HPLC-MS-MS.
Setting [6] is: brain, read-out: c(brain)/c(plasma).

This note sets out measurements from US20140045856A1, “4-Methyl-2,3,5,9,9b-pentaaza-cyclopenta[a]naphthalenes” (BOEHRINGER INGELHEIM INTERNATIONAL GMBH, priority 2012, published 2014).

The structures appear in SMILES notation. Read-outs that look alike come from different tables or passages of the source.

Chain of hERG channel (Q12809 whole entry): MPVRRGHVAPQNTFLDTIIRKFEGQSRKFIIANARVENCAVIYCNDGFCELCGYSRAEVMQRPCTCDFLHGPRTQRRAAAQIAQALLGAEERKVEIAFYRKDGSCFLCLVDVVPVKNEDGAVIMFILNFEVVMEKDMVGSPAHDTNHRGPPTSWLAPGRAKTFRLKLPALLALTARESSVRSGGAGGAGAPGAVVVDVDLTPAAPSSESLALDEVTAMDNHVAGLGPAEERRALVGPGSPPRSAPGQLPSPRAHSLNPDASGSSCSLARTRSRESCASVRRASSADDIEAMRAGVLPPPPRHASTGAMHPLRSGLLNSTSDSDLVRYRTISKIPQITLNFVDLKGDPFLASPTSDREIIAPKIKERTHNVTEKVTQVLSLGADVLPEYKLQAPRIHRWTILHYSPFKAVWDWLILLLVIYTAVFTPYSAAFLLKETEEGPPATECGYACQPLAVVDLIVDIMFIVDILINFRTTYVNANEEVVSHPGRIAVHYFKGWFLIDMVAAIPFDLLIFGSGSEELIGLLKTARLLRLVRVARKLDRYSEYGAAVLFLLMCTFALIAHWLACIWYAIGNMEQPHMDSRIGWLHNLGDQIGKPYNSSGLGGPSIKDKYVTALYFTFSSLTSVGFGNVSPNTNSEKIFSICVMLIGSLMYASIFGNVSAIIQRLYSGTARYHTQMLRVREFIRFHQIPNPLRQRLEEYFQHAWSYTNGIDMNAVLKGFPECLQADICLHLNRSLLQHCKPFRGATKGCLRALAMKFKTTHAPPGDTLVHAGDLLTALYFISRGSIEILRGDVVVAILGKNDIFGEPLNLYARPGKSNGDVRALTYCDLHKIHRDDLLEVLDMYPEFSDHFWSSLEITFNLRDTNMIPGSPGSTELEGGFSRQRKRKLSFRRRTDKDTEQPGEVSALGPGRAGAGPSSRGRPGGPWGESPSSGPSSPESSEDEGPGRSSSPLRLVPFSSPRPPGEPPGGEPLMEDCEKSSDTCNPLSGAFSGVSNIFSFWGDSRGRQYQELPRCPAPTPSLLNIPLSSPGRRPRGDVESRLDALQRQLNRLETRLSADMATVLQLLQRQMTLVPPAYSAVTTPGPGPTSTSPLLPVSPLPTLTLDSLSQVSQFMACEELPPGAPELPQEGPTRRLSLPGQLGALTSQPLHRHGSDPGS

What is called IC50 is the concentration that gives 50% inhibition. Regarding `Cc1ccc(C2(O)CCOCC2O)cc1-c1nnc2c(C)nc3ccc(C4CC4)nc3n12` (single isomer, unassigned) [Example 104b], the “Half-life - t½” value in series [1] amounted to 2.17 h. Also, the IC50 in series [2] was 30 nM; in series [3], 9760 nM.

With `Cc1ccc2nc(C)c3nnc(-c4cc(C5(O)CCC5)ccc4Cl)n3c2n1` [Example 89], the “Half-life - t½” value in series [1] was 2.17 h. The IC50 in series [3] stood at 187 nM.

Turning to `Cc1ccc(C2(O)CCOCC2O)cc1-c1nnc2c(C)nc3ccc(C4CC4)nc3n12` (single isomer, unassigned) [Example 104a], the “Half-life - t½” value in series [1] was 2.17 h. The IC50 in series [2] worked out at 40 nM; in series [3] it was 3230 nM.

On to `Cc1nc2ccc(C3CC3)nc2n2c(-c3cc(CC(C)(C)O)ccc3F)nnc12` [Example 80], for which the 50% inhibitory concentration (IC50) in series [2] is 10 nM; in series [4], over 10000 nM; in series [3], 5410 nM.

For the molecule `Cc1nc2ccc(C3(C)CC3)nc2n2c(-c3cc(C(C)(C)O)ccc3F)nnc12` [Example 72], in series [1], the “Half-life - t½” value came out at 2.17 h. In series [2], the IC50 amounted to 32 nM.

As to `Cc1nc2cccnc2n2c(-c3cc(OC4COCCC4O)ccc3Cl)nnc12` (single isomer, unassigned) [Example 58], the “Half-life - t½” value in series [1] is 2.17 h. For the same molecule, the 50% inhibitory concentration (IC50) in series [2] amounted to 143 nM; in series [3] it was 663 nM.

One may read the half-life as the time in which the quantity being followed falls by half. As to `Cc1ccc(C(C)(C)CO)cc1-c1nnc2c(C)nc3ccc(C4CC4)nc3n12` [Example 100], the half-life at 1 μM in series [1] came out at 0.2 h. For the same molecule, the values for the IC50 in series [2] and in series [3] were 17 nM and 3860 nM, respectively.

In the case of `Cc1nc2cccnc2n2c(-c3cc(OCC(C)(C)O)ccc3Cl)nnc12` [Example 44], the “Half-life - t½” value in series [1] was 2.17 h. For the same molecule, the figures for the IC50 in series [2] and in series [3] were 156 nM and 6040 nM, respectively. The concentration at 0.5 h in series [5] (brain, read-out: conc brain) is 670 nM; in series [5] (plasma, read-out: conc plasma), 2190 nM; in series [5] (read-out: conc CSF) it was 228 nM. Also, the Kp at 0.5 h turned out to be 0.31 in series [5] (setting [6]) and 0.1 in series [5] (read-out: c(CSF)/c(plasma)).

In the case of `Cc1ccc2nc(C)c3nnc(-c4cc(C(C)O)ccc4Cl)n3c2n1` (stereo not shown) [Example 63], the “Half-life - t½” value in series [1] was found to be 2.17 h. For the same molecule, the IC50 came to 60 nM in series [2] and 1710 nM in series [3].

As to `Cc1nc2ccc(C3CC3)nc2n2c(-c3cc(CCC(C)(C)O)ccc3F)nnc12` [Example 66], the results for the IC50 in series [2], in series [4] and in series [3] were 3 nM, over 10000 nM and 674 nM, respectively.

As to `CCC(O)c1ccc(Cl)c(-c2nnc3c(C)nc4ccc(C)nc4n23)c1` (stereo not shown) [Example 62], the “Half-life - t½” value in series [1] is 2.17 h. In addition, the IC50 in series [2] came out at 11 nM.

Consider `Cc1ccc(CCC(C)(C)O)cc1-c1nnc2c(C)nc3cccnc3n12` [Example 67], for which the “Half-life - t½” value in series [1] stood at 2.17 h. Further, the half-maximal inhibitory concentration (IC50) was determined as 175 nM in series [2] and 3900 nM in series [3].

`Cc1nc2ccc(C(C)C)nc2n2c(-c3cc(OCC(C)(C)O)ccc3F)nnc12` [Example 52]: in series [1], the “Half-life - t½” value was 2.17 h. In addition, the 50% inhibitory concentration (IC50) in series [2] came out at 11 nM; in series [3] it was 1200 nM.

In the case of `Cc1nc2cccnc2n2c(-c3cc(C(C)(C)O)ccc3Cl)nnc12` [Example 70], the “Half-life - t½” value in series [1] is 2.17 h. Besides, the IC50 in series [2] was 163 nM; in series [3] it was 8620 nM. The concentration at 2 h in series [5] (brain, read-out: conc brain) was determined as 695 nM; in series [5] (plasma, read-out: conc plasma), 2380 nM; in series [5] (read-out: conc CSF) it was 276 nM. In addition, the figures for the Kp at 2 h in series [5] (setting [6]) and in series [5] (read-out: c(CSF)/c(plasma)) were 0.29 and 0.12, respectively.

With `Cc1nc2ccc(C3CC3)nc2n2c(-c3cc(C4(O)CCC4)ccc3Cl)nnc12` [Example 88], the IC50 in series [2] is 1 nM; in series [4] it was over 10000 nM.

For the molecule `Cc1nc2cccnc2n2c(-c3cc(OC4COCC4O)ccc3Cl)nnc12` (single isomer, unassigned) [Example 55a], the “Half-life - t½” value in series [1] worked out at 2.17 h. The same molecule showed an IC50 in series [3] of 2440 nM.

For the molecule `Cc1ccc(C2(O)CCOCC2O)cc1-c1nnc2c(C)nc3ccc(C4CC4)nc3n12` (racemic) [Example 104], the “Half-life - t½” value in series [1] is 2.17 h. Also, the IC50 in series [2] is 36 nM; in series [3], 7720 nM.

As for `Cc1nc2ccc(C3CC3)nc2n2c(-c3cc(CC(C)(C)O)ccc3Cl)nnc12` [Example 83], the half-inhibitory concentration (IC50) in series [2] is 4 nM; in series [4] it was over 10000 nM; in series [3] it was 8820 nM.

As for `Cc1nc2ccc(C3CC3)nc2n2c(-c3cc(OC4CCOCC4)ccc3Cl)nnc12` [Example 32a], the IC50 in series [4] was over 10000 nM; in series [3], 7390 nM.

Take `Cc1ccc2nc(C)c3nnc(-c4cc(C(C)(C)O)ccc4Cl)n3c2n1` [Example 71]: in series [1], the “Half-life - t½” value was 2.17 h. Further, the IC50 in series [2] was 109 nM.

Turning to `Cc1ccc(C2(O)CCC2)cc1-c1nnc2c(C)nc3cccnc3n12` [Example 73], in series [1], the “Half-life - t½” value was determined as 2.17 h. Besides, the half-maximal inhibitory concentration (IC50) in series [2] turned out to be 189 nM.

As for `Cc1ccc(OCC2(O)CCC2)cc1-c1nnc2c(C)nc3cccnc3n12` [Example 50], the “Half-life - t½” value in series [1] was determined as 2.17 h. Moreover, the values for the IC50 in series [2] and in series [3] were 194 nM and 7120 nM, respectively.

Regarding `Cc1ccc(CCC(C)(C)O)cc1-c1nnc2c(C)nc3ccc(C4CC4)nc3n12` [Example 68], the concentration for half-maximal inhibition (IC50) in series [2] stood at 2 nM; in series [4], 8300 nM; in series [3], 1010 nM.

As for `Cc1ccc2nc(C)c3nnc(-c4cc(C5(O)CCC5)ccc4C)n3c2n1` [Example 102], in series [1], the “Half-life - t½” value is 2.17 h. For the same molecule, the IC50 in series [2] was 103 nM; in series [3] it was 2260 nM.

On to `Cc1ccc2nc(C)c3nnc(-c4cc(C(O)C(C)C)ccc4Cl)n3c2n1` (stereo not shown) [Example 59], for which, in series [1], the half-life at 1 μM amounted to 0.817 h. Besides, the IC50 in series [2] was found to be 8 nM; in series [3] it was 936 nM.

As for `Cc1nc2cc(C(C)C)cnc2n2c(-c3cc(OCC(C)(C)O)ccc3Cl)nnc12` [Example 54], the “Half-life - t½” value in series [1] came out at 2.17 h. The half-inhibitory concentration (IC50) in series [2] amounted to 58 nM; in series [3], 798 nM.

Consider `Cc1ccc2nc(C)c3nnc(-c4cc(OCC(C)(C)O)ccc4Cl)n3c2n1` [Example 46], for which, in series [1], the “Half-life - t½” value was determined as 2.17 h. In series [2], the IC50 was found to be 50 nM.

`Cc1nc2ccc(C3CC3)nc2n2c(-c3cc(C4(O)CCC4)ccc3F)nnc12` [Example 84]: the values for the IC50 in series [2], in series [4] and in series [3] were 6 nM, 6300 nM and 565 nM, respectively.

On to `Cc1ccc(OCC(C)(C)O)cc1-c1nnc2c(C)nc3ccc(C(C)C)nc3n12` [Example 51], for which the “Half-life - t½” value in series [1] was 2.17 h. Moreover, the IC50 in series [2] worked out at 9 nM.

The molecule `Cc1ccc2nc(C)c3nnc(-c4cc(OCCO)ccc4Cl)n3c2n1` [Example 28] yielded an IC50 in series [4] of over 10000 nM.

For `Cc1nc2cccnc2n2c(-c3cc(C4(O)CCOC4)ccc3Cl)nnc12` (single isomer, unassigned) [Example 99], the “Half-life - t½” value in series [1] stood at 2.17 h. Also, the IC50 stood at 125 nM in series [2] and 1510 nM in series [3].
